Source: paper PMC12787479, “Steam Explosion as a Green Pretreatment Strategy to Enhance Total Phenolics Release and Biological Activities in Potentilla discolor Bunge Stems” (Molecules, 2025)
Marks after values point to notes of the source that are not given here.

Assays:
Format in all cases: biochemical
[1] = DPPH free radical scavenging assay; details: extract obtained under optimized extraction conditions; 25 °C, 30 min, 517 nm
Experimental: DPPH ethanol solution (0.12 μmol/mL, 0.1 mL) was mixed with 0.1 mL different concentrations of PDB stem solutions (10, 25, 50, 75, and 100 μg/mL). Incubation was carried out in a dark environment at 25 °C for 30 min. […] The absorbance values were measured at 517 nm using an enzyme meter. All experiments were performed in triplicate, and results are expressed as mean ± standard deviation (SD). The calculation formula was as follows.(3) Radical scavenging rate %=[…]×100% where Ac was the absorbance of blank group; As was the absorbance of PDB stem group, respectively. […] All data were represented as mean ± standard deviation (SD) and the significant statistical differences was determined by a one-way ANOVA test using SPSS version 22.0. Different lowercase letters were regarded as significant differences (p < 0.05).

[2] = ABTS free radical scavenging assay; details: extract obtained under optimized extraction conditions; 30 min dark, 734 nm
Experimental: The solution was then diluted fivefold before use. […] For standard curve construction, ascorbic acid solutions at concentrations of 2, 4, 8, 15, 25, and 50 μg/mL were treated in the same manner. All experiments were performed in triplicate, and results were expressed as mean ± SD. The absorbance values were measured at 734 nm, and the scavenging rate was calculated using Equation (1). […] All data were represented as mean ± standard deviation (SD) and the significant statistical differences was determined by a one-way ANOVA test using SPSS version 22.0. Different lowercase letters were regarded as significant differences (p < 0.05).

[3] = FRAP reduction assay (ferric reducing antioxidant power); details: absorbance at 700 nm at a concentration of 600 μg/mL
Experimental: Extraction solutions of PDB stems at 0.4, 0.6, 0.8, 1.0, or 1.2 mg/mL (0.1 mL each) were mixed with an equal volume (0.1 mL) of 30 μmol/mL K3[Fe(CN)6] solution (1:1, v/v) and incubated at 50 °C for 20 min. Then, 0.2 mL of 10% (w/v) trichloroacetic acid (TCA) solution was added, and the resulting mixture was defined as solution A. Finally, 0.1 mL of solution A was mixed with 0.1 mL of 3.4 μmol/mL FeCl3 solution, and the absorbance of the mixture was measured at 700 nm. […] All experiments were performed in triplicate, and results are expressed as mean ± SD.

O=C1O[C@H]([C@@H](O)CO)C(O)=C1O [Ascorbic acid]
DPPH·IC50 [1]: 3.47 ± 0.02 ^a μg/mL
ABTS·IC50 [2]: 20.71 ± 0.42 ^a μg/mL
FRAP (A700, 600 μg/mL) [3]: 3.17 ± 0.05 ^a
FRAP (A700, 600 μg/mL) ([3]; listed as ascorbic acid): 3.17 ± 0.05
